The test system of experiment [1] is androgen dependent signaling (androgen sensitive organs). Nature of the experiment: Hershberger Assay. Format: in vivo, rat. To be noted: 3 mg/kg (positive control), 10 days, with TP 0.4 mg/kg, castrated rats, mean ± SD (n=6). On the procedure:
The effect of AR antagonists on androgen dependent signaling in vivo was assessed using the Hershberger assay. In this assay, peripubertal castrated male Sprague-Dawley rats were administered AR antagonists described herein in the presence of testosterone (0.4 mg/kg testosterone propionate) and the weights of androgen dependent organs measured. Dosing was continued for 10 days and measurements taken 24 h after the last dose. The extent of antagonism of AR and consequent inhibition of organ growth was evaluated by comparison to the castration control. Compounds of Formula (I) were dosed orally QD and an endpoint assessment made by change in weight of 5 androgen sensitive organs (ASO): Paired Cowper's Glands (CG), Seminal Vesicles with Fluids and Coagulating Glands (SVCG), Glans Penis (GP), Ventral Prostate (VP) and Levator Ani-Bulbocavernosus Complex (LABC)). According to assay guidelines, statistically significant suppression of ASO is required in 2 of 5 organs for a compound to be classified as an anti-androgen (analysis was performed by t-test/Mann-Whitney).
Unless otherwise stated, compounds defined herein were administered at 30 mg/kg and flutamide (FT), positive control, at 3 mg/kg. All compounds were co-administered with testosterone propionate (TP, 0.4 mg/kg) which was also administered alone, untreated control, (castrated only rats served as the control for complete androgen blockade). A statistically significant change in ASO achieved in at least 2 of 5 organs was indicative of an active compound.

For experiment [2], the target named is T1, wild-type Androgen Receptor (AR-wt) (Homo sapiens (Human), UniProt P10275). Description: LNCaP-AR-wt ANT reporter assay (antagonist mode). Type of experiment: cell-based. To be noted: for LNCaP-AR-wt ANT pIC50 / IC50: pIC50 = −Log10(IC50 in Molar); for IC50: read-out: LNCaP-AR-wt ANT pIC50 (converted); for Emax: read-out: LNCaP-AR-wt ANT MAX % Inh.
T1 sequence (P10275 whole entry): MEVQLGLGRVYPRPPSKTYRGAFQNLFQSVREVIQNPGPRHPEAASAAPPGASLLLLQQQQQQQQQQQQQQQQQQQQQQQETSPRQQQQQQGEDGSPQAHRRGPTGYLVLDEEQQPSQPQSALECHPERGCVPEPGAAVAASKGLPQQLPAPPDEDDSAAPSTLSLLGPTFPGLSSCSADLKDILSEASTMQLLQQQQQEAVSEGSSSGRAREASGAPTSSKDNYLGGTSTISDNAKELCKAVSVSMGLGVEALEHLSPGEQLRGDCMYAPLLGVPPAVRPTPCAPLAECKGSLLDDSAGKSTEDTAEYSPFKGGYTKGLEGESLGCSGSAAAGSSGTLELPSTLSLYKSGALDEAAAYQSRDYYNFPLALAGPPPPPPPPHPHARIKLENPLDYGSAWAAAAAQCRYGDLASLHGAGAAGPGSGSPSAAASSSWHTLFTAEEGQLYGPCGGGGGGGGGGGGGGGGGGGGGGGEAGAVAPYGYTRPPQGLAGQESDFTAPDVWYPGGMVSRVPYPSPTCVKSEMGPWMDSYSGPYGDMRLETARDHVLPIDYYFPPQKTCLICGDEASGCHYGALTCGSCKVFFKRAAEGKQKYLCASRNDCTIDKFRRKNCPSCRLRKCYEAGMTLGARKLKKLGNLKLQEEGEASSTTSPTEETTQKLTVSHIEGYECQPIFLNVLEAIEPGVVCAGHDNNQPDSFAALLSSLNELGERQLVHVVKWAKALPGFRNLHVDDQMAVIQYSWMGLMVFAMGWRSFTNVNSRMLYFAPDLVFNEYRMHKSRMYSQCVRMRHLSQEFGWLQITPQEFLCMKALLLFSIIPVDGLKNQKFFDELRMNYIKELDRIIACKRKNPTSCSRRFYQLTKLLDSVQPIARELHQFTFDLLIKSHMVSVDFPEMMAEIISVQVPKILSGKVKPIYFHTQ
The target of experiment [3] is T1, wild-type Androgen Receptor (AR-wt). Description: LNCaP-AR-wt AG reporter assay (agonist mode). Type of experiment: cell-based. Particulars: for EC50: read-out: LNCaP-AR-wt AG pEC50 (converted); for Emax: read-out: LNCaP-AR-wt AG MAX % Stim. For orientation: Reporter assays use an easily measured gene product as a stand-in for the process of interest.
The target of experiment [4] is T2, F876L mutant Androgen Receptor (AR-F876L) (Homo sapiens (Human), UniProt P10275, F877L). Nature of the experiment: LNCaP-AR-F876L ANT reporter assay (antagonist mode). Type of experiment: cell-based. To be noted: for LNCaP-AR-F876L ANT pIC50 / IC50: pIC50 = −Log10(IC50 in Molar); for IC50: read-out: LNCaP-AR-F876L ANT pIC50 (converted); for Emax: read-out: LNCaP-AR-F876L ANT MAX % Inh.
T2 sequence (P10275 whole entry F877L): as the sequence (P10275 whole entry) above, with F877L counted along it

For experiment [5], the target named is T2, F876L mutant Androgen Receptor (AR-F876L). Nature of the experiment: LNCaP-AR-F876L AG reporter assay (agonist mode). To be noted: for EC50: read-out: LNCaP-AR-F876L AG pEC50 (converted); for Emax: read-out: LNCaP-AR-F876L AG MAX % Stim. Format: cell-based.
For experiment [6], the system named is rGABA-gated Cl− channel. Nature of the experiment: GABA-Gated Cl Channel Antagonist Radioligand Binding Assay. On the set-up: species or system rat. To be noted: 10 μM single point, [35S]-TBPS, cerebral cortex membrane homogenates. In short, it runs like this: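 Values give percent inhibition of control specific […] (3 nM) binding at a single 10 μM compound concentration. Cerebral cortex membranes, 120 min, 22° C, phosphate buffer pH 7.4 with 500 mM NaCl; 20 μM picrotoxinin sets nonspecific binding; filtration and scintillation read-out.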

The mark [7] stands for this setting: maximum % inhibition of R1881 control response over the tested concentration range.
Where [8] appears, read: agonist mode, pEC50 = −Log10(EC50 in Molar).
Where [9] appears, read: maximum % stimulation (agonist response) over the tested concentration range.
Setting [10] is: antagonist mode, maximum % inhibition of R1881 control response over tested concentration range.
[11] abbreviates: agonist mode, maximum % stimulation over tested concentration range.

Take `CC(C)C(=O)Nc1ccc([N+](=O)[O-])c(C(F)(F)F)c1` [Flutamide, flutamide, reference compound]: in experiment [1], the “ASO Organ Growth (% of TP control) SVCG” value is listed as 16.6 ± 16.3 % of TP control and the “ASO Organ Growth (% of TP control) VP” value is reported as 24.4 ± 35.5 % of TP control.
Take “3-chloro-5-[8-[2-(1-methyl-4-piperidyl)indazol-5-yl]-5-oxo-7-thioxo-6,8-diazaspiro[3.4]octan-6-yl]pyridine-2-carbonitrile [Cpd 181]”: the “LNCaP-AR-wt ANT pIC50” value in experiment [2] (antagonist mode) is 6.47. Moreover, the “LNCaP-AR-wt ANT MAX % Inh” value in experiment [2] (setting [7]) is given as 96.8%. For the same compound, in experiment [3] (setting [8]), the “LNCaP-AR-wt AG pEC50” value is listed as less than 4.82. Moreover, in experiment [3] (setting [9]), the “LNCaP-AR-wt AG MAX % Stim” value stood at 1.9%. The “LNCaP-AR-F876L ANT pIC50” value in experiment [4] (antagonist mode) is 6.80. For the same compound, the “LNCaP-AR-F876L ANT MAX % Inh” value in experiment [4] (setting [7]) turned out to be 101.9%. Moreover, the “LNCaP-AR-F876L AG pEC50” value in experiment [5] (setting [8]) was less than 4.82. Also, in experiment [5] (setting [9]), the “LNCaP-AR-F876L AG MAX % Stim” value came out at 0.3%. The “rGABA-gated Cl− channel % inh @10 μM” value in experiment [6] came out at 26.0%.
For `COCCN1CCC(Oc2ccc(N3C(=S)N(c4cnc(C#N)c(C(F)(F)F)c4)C(=O)C34CCC4)cn2)CC1` [Cpd 61, 5-[8-[6-[[1-(2-methoxyethyl)-4-piperidyl]oxy]-3-pyridyl]-5-oxo-7-thioxo-6,8-diazaspiro[3.4]octan-6-yl]-3-(trifluoromethyl)pyridine-2-carbonitrile], the IC50 in experiment [2] (antagonist mode) is 29.5 nM; in experiment [4] (antagonist mode) it was 36.3 nM. Further, the Emax in experiment [2] (setting [7]) stood at 99.2%; in experiment [3] (setting [9]), 0.4%; in experiment [4] (setting [7]) it was 98.8%; in experiment [5] (setting [9]), 0.3%. In addition, the EC50 in experiment [3] (setting [8]) and in experiment [5] (setting [8]) was more than 15.1 µM each time. In addition, the “rGABA-gated Cl− channel % inh @10 μM” value in experiment [6] is 26.1%.
On to `N#Cc1ncc(N2C(=O)C3(CCC3)N(c3ccc(OC4CCNCC4)nc3)C2=S)cc1Cl` [Cpd 64, 3-chloro-5-[5-oxo-8-[6-(4-piperidyloxy)-3-pyridyl]-7-thioxo-6,8-diazaspiro[3.4]octan-6-yl]pyridine-2-carbonitrile], for which the “LNCaP-AR-wt ANT pIC50” value in experiment [2] (antagonist mode) came to 7.30. The Emax in experiment [2] (setting [7]) was 101%; in experiment [3] (setting [9]), -0.2%; in experiment [4] (setting [7]) it was 100%; in experiment [5] (setting [9]), 0.1%. In addition, the EC50 in experiment [3] (setting [8]) and in experiment [5] (setting [8]) was more than 15.1 µM throughout. Besides, the “LNCaP-AR-F876L ANT pIC50” value in experiment [4] (antagonist mode) is listed as 7.33. The “rGABA-gated Cl− channel % inh @10 μM” value in experiment [6] is 5.8%.
In the case of `N#Cc1ncc(N2C(=O)C3(CCC3)N(c3ccc(SC4CCNCC4)cc3)C2=S)cc1C(F)(F)F` [Cpd 240, 5-[5-oxo-8-[4-(4-piperidylsulfanyl)phenyl]-7-thioxo-6,8-diazaspiro[3.4]octan-6-yl]-3-(trifluoromethyl)pyridine-2-carbonitrile], the Emax stood at 106% in experiment [2] (setting [10]), 1% in experiment [3] (setting [11]), 105% in experiment [4] (setting [10]) and 0% in experiment [5] (setting [11]). For the same compound, the results for the IC50 in experiment [2] (antagonist mode) and in experiment [4] (antagonist mode) were 457 nM and 224 nM, respectively. Moreover, the EC50 in experiment [3] (setting [8]) and in experiment [5] (setting [8]) was more than 15.1 µM in each case. Besides, in experiment [6], the “rGABA-gated Cl− channel % inh @10 μM” value was found to be 44.7%.
With `C=CCN1CCC(Oc2ccc(N3C(=S)N(c4cnc(C#N)c(C(F)(F)F)c4)C(=O)C34CCC4)cn2)CC1` [Cpd 88, 5-[8-[6-[(1-allyl-4-piperidyl)oxy]-3-pyridyl]-5-oxo-7-thioxo-6,8-diazaspiro[3.4]octan-6-yl]-3-(trifluoromethyl)pyridine-2-carbonitrile], the IC50 in experiment [2] (antagonist mode) was 74.1 nM; in experiment [4] (antagonist mode), 33.1 nM. Further, the Emax in experiment [2] (setting [7]) amounted to 102%; in experiment [3] (setting [9]), 0.4%; in experiment [4] (setting [7]), 99.5%; in experiment [5] (setting [9]), 0.4%. Moreover, the EC50 in experiment [3] (setting [8]) and in experiment [5] (setting [8]) was more than 15.1 µM in each case. The “rGABA-gated Cl− channel % inh @10 μM” value in experiment [6] is given as 49.7%.
For `CN1CC[C@H](Oc2ccc(N3C(=S)N(c4cnc(C#N)c(C(F)(F)F)c4)C(=O)C34CCC4)cc2)[C@@H](F)C1` (racemic) [Cpd 92, 5-[8-[(3SR, 4SR)-4-[(3-fluoro-1-methyl-4-piperidyl)oxy]phenyl]-5-oxo-7-thioxo-6,8-diazaspiro[3.4]octan-6-yl]-3-(trifluoromethyl)pyridine-2-carbonitrile], the IC50 in experiment [2] (antagonist mode) is 77.6 nM; in experiment [4] (antagonist mode), 60.3 nM. Further, the Emax in experiment [2] (setting [7]) amounted to 101%; in experiment [3] (setting [9]), 0.3%; in experiment [4] (setting [7]), 98.2%; in experiment [5] (setting [9]), 0.5%. In addition, the EC50 in experiment [3] (setting [8]) and in experiment [5] (setting [8]) was more than 15.1 µM in each case. Moreover, the “rGABA-gated Cl− channel % inh @10 μM” value in experiment [6] stood at 73.4%.
With `N#Cc1ncc(N2C(=O)C3(CCC3)N(c3ccc(OC4CCN(CCO)CC4)nc3)C2=S)cc1C(F)(F)F` [Cpd 63, 5-[8-[6-[[1-(2-hydroxyethyl)-4-piperidyl]oxy]-3-pyridyl]-5-oxo-7-thioxo-6,8-diazaspiro[3.4]octan-6-yl]-3-(trifluoromethyl)pyridine-2-carbonitrile], the IC50 is 81.3 nM in experiment [2] (antagonist mode) and 69.2 nM in experiment [4] (antagonist mode). The Emax in experiment [2] (setting [7]) is 102%; in experiment [3] (setting [9]), 0%; in experiment [4] (setting [7]), 101%; in experiment [5] (setting [9]), 0.1%. Moreover, the EC50 in experiment [3] (setting [8]) and in experiment [5] (setting [8]) was more than 15.1 µM throughout. Moreover, the “rGABA-gated Cl− channel % inh @10 μM” value in experiment [6] came to 13.0%.
On to `N#Cc1ncc(N2C(=O)C3(CCC3)N(c3ccc(OC4CCN(CCO)CC4)cc3)C2=S)cc1Cl` [Cpd 50, 3-chloro-5-[8-[4-[[1-(2-hydroxyethyl)-4-piperidyl]oxy]phenyl]-5-oxo-7-thioxo-6,8-diazaspiro[3.4]octan-6-yl]pyridine-2-carbonitrile], for which the IC50 in experiment [2] (antagonist mode) is 16.2 nM; in experiment [4] (antagonist mode), 8.71 nM. The Emax was 101% in experiment [2] (setting [7]), 0.1% in experiment [3] (setting [9]), 98% in experiment [4] (setting [7]) and 1.4% in experiment [5] (setting [9]). Moreover, the EC50 in experiment [3] (setting [8]) and in experiment [5] (setting [8]) was more than 15.1 µM in each case. Further, the “rGABA-gated Cl− channel % inh @10 μM” value in experiment [6] was 13.2%.
In the case of `N#Cc1ncc(N2C(=O)C3(CCC3)N(c3ccc4c(c3)CCNC4)C2=S)cc1C(F)(F)F` [Cpd 108, 5-(8-oxo-5-(1,2,3,4-tetrahydroisoquinolin-6-yl)-6-thioxo-5,7-diazaspiro[3.4]octan-7-yl)-3-(trifluoromethyl)picolinonitrile], the values for the IC50 in experiment [2] (antagonist mode) and in experiment [4] (antagonist mode) were 1660 nM and 1020 nM, respectively. Besides, the Emax came to 98.3% in experiment [2] (setting [7]), 0.7% in experiment [3] (setting [9]), 94.8% in experiment [4] (setting [7]) and 0.2% in experiment [5] (setting [9]). In addition, the EC50 in experiment [3] (setting [8]) and in experiment [5] (setting [8]) was more than 15.1 µM throughout. In addition, the “rGABA-gated Cl− channel % inh @10 μM” value in experiment [6] is recorded as 17.1%.
Turning to `CC(C)CCN1CCC(Oc2ccc(N3C(=S)N(c4cnc(C#N)c(Cl)c4)C(=O)C34CCC4)cn2)CC1` [Cpd 149, 3-chloro-5-[8-[6-[(1-isopentyl-4-piperidyl)oxy]-3-pyridyl]-5-oxo-7-thioxo-6,8-diazaspiro[3.4]octan-6-yl]pyridine-2-carbonitrile], the IC50 in experiment [2] (antagonist mode) was 81.3 nM; in experiment [4] (antagonist mode) it was 105 nM. Besides, the Emax in experiment [2] (setting [7]) is 99.8%; in experiment [3] (setting [9]), 0.5%; in experiment [4] (setting [7]) it was 97.9%; in experiment [5] (setting [9]), 1.5%. The EC50 in experiment [3] (setting [8]) and in experiment [5] (setting [8]) was more than 15.1 µM throughout. Besides, the “rGABA-gated Cl− channel % inh @10 μM” value in experiment [6] is recorded as 35.4%.

The record behind these values is US10981926B2 (Janssen Pharmaceutica NV, priority 2016, dated 2021).
